Experimental data published in patent US10905691B2, “Use of triazolo(4,5-d)pyrimidine derivatives for prevention and treatment of bacterial infection” (Universite de Liege, priority 2016, dated 2021).
≈ marks a conversion by molar mass, not a printed value.

Legend:
[1] = tested on: E. faecalis (ATCC 29212) biofilm; assay: Biofilm formation on polystyrene (crystal violet); format: cell-based, Enterococcus faecalis; conditions: 20 hours
Method: E. faecalis (ATCC 29212) was grown overnight in BHI medium, before being diluted 100 fold in fresh TSB, and incubated aerobically at 37° C. until bacteria culture reached an OD600 of 0.6 (corresponding to approximately 2-5×10^8 CFU/ml). Bacteria cultures were then diluted to 1×10^4 CFU/ml in fresh TSB. 800 μl aliquots of diluted bacteria suspensions were distributed in each well of a 24-well plate. Bacteria were allowed to adhere for 4 hours under static conditions at 37° C. After removing media, wells were rinsed 2 times with PBS to eliminate planktonic bacteria and re-filled with TSB supplemented with 0.5% glucose
Triafluocyl or DMSO as vehicle was then added at desired concentration and plates were incubated at 37° C. for 20 hours. After incubation, wells were washed and stained with 0.5% (w/v) crystal violet for 30 minutes, washed again and the dye was solubilized by adding 20% acetic acid (v/v in water) before reading absorbance at 595 nm.
E. faecalis biofilms were formed on polystyrene surface in the presence of increasing concentrations of Triafluocyl or DMSO as vehicle. In FIG. 2, Biofilm mass is presented as percentage of values obtained in the presence of DMSO (*P<0.05; **P<0.01; ***P<0.001, Triafluocyl versus DMSO, n=4).

E. faecalis (ATCC 29212) = assay: Growth kinetics in logarithmic phase (OD600 and viable count); format: cell-based, Enterococcus faecalis; conditions: 30-120 min, FIG. 3
Method: E. faecalis (ATCC 29212) was grown overnight in Brain heart infusion (BHI) medium, diluted 1:100 in fresh BHI, and incubated aerobically at 37° C. until bacteria growth reached a logarithmic phase (OD600=0.25-0.3).
(§1) Increasing concentrations of Triafluocyl (Cayman Chemical, Item No. 15425) or DMSO as vehicle was then added in 5 ml of bacteria suspensions. Bacterial growth was measured after different time intervals (30-120 min) by spectrophotometry (OD600) and by counting the colony-forming units after plating appropriate culture dilutions on BHI agar plates.
In FIG. 3 kinetics of E. faecalis growth in the presence of an increasing concentrations (5 μg/ml to 40 μg/ml) of Triafluocyl were measured by turbidity measurement (upper graph), and viable count (lower graph). Data represent medians±range (n=3).

S. aureus ATCC 6538 = assay: MIC determination (EUCAST, Mueller-Hinton broth); format: cell-based; conditions: Staphylococcus aureus, ATCC6538
Method: Further experiments were conducted using different strains of S. aureus, as clinically relevant Gram-positive bacterial strains: ATCC 25904, ATCC 6538, methilcillin-resistant S. aureus (MRSA) ATCC BAA-1556, Glycopeptide intermediate-resistant (GISA) S. aureus Mu-50 (ATCC 700695) in order to determine the Minimal Inhibitory Concentration (MIC) which is the minimal concentration required to prevent bacterial growth; the Minimal Bactericidal Concentration (MBC) which determines the lowest concentration at which an antimicrobial agent kill a particular microorganism and a Minimum Duration for killing 99.9% bacteria (MDK99.9) which is a tolerance metric according to the EUCAST.
MIC determination: A single colony selected from the different strains of S. aureus is resuspended and cultured in the appropriate medium overnight (O/N) in aerobic conditions (37° C. with 220 rpm shaking), next day a 1:100 inoculum in Mueller-Hinton broth (MHB) was incubated in aerobic conditions for 3 hr (OD=0.08-0.1) and an inoculum of 1:300 dilution, corresponding to 3×10^5 CFU/ml, was incubated in presence or absence of different concentrations of Triafluocyl in 1% DMSO. After O/N growth the OD of each culture was measured at 600 nm in a spectrophotometer (OD600). […]

S. aureus (ATCC 25904) = assay: Growth kinetics in logarithmic phase (OD600 and viable count); format: cell-based, Staphylococcus aureus; conditions: 20-100 min, FIG. 1
Method: S. aureus (American Type Culture Collection, ATCC 25904) was grown overnight in Tryptic Soy Broth (TSB) medium, diluted 1:100 in fresh TSB, and incubated aerobically at 37° C. until bacteria growth reached a logarithmic phase (OD600=0.25-0.3).
as §1, with “or” for “or DMSO as”, “vehicle (DMSO)” for “vehicle”, “(20-100” for “(30-120”, “TS” for “BHI”
In FIG. 1 kinetics of S. aureus growth in the presence of an increasing concentrations (1 μg/ml to 20 μg/ml) of Triafluocyl were measured by turbidity measurement (upper graph), and viable count (lower graph). Data represent medians±range (n=3). *p<0.05; **p<0.01, ***p<0.001, Triafluocyl vs vehicle.

S. epidermidis = assay: Time-kill study in logarithmic phase; format: cell-based, Staphylococcus epidermidis
Method: To evaluate Triafluocyl antibacterial effect we have tested S. epidermidis liquid growth in the presence of different Triafluocyl concentrations in logarithmic phase. […] A 1:100 inoculum in 50 ml TSB of an O/N culture of S. epidermidis was cultured for 3 hr up to its logarithmic phase (OD600=0.26 and ≈3×10^8 CFU/ml). Bacteria were split in several tubes containing different concentrations of DMSO as vehicle alone or in combination with Triafluocyl in TSB and grown for 100 min at 37° C. with 220 rpm shaking, the OD600 was measured every 20 min.

MIC (S. aureus ATCC 6538): 20 µg/mL (≈ 38.3 µM)
SMILES: CCCSc1nc(N[C@@H]2C[C@H]2c2ccc(F)c(F)c2)c2nnn([C@@H]3C[C@H](OCCO)[C@@H](O)[C@H]3O)c2n1 [Triafluocyl, (1S,2S,3R,5S)-3-[7-[(1R,2S)-2-(3,4-difluorophenyl)cyclopropylamino]-5-(propylthio)-3H-[1,2,3]-triazolo[4,5-d]pyrimidin-3-yl]-5-(2-hydroxyethoxy)-1,2-cyclopentanediol]
E. faecalis biofilm formation ([1]; 40 μg/ml, polystyrene surface): no biofilm could form
E. faecalis biofilm formation ([1]; starting concentration of 10 μg/ml, versus DMSO): significantly reduces
effect on bacterial growth (turbidity and viable count) (E. faecalis (ATCC 29212); 10 μg/ml): able to inhibit bacterial growth
effect on bacterial growth (turbidity and viable count) (E. faecalis (ATCC 29212); 20 μg/ml): potent bactericidal effects
effect on bacterial growth (turbidity and viable count) (E. faecalis (ATCC 29212); 40 μg/ml): potent bactericidal effects
effect on bacterial growth (turbidity and viable count) (S. aureus (ATCC 25904); 10 μg/ml): able to inhibit bacterial growth
effect on bacterial growth (turbidity and viable count) (S. aureus (ATCC 25904); 20 μg/ml): potent bactericidal effect
S. epidermidis growth (OD600) (S. epidermidis; 50 μg/ml): slight bacteriostatic activity
number of viable cells (S. epidermidis; 50 μg/ml, at 80 min): 3×10^8 CFU/ml
S. epidermidis growth (OD600) (S. epidermidis; between 10 μg/ml and 20 μg/ml, compared to DMSO (0.25%), 100 min): dose-dependent inhibition
